From ChEMBL document CHEMBL1833865, “Oleanane-type triterpene saponins from the bark of Aralia elata and their NF-κB inhibition and PPAR activation signal pathway” (Bioorg Med Chem Lett, 2011)
Active and inactive are the calls of the source. No cut-off for these calls is given here.

Tests used:
Format in all cases: cell-based
[1] = target: T1, Peroxisome proliferator-activated receptor alpha (Homo sapiens) (UniProt Q07869); test: Transactivation of Gal4-fused PPARalpha ligand binding domain expressed in human HepG2 cells co-transfected with pFR-Luc and pRL-CMV at 0.1 to 10 uM after 20 hrs by dual-luciferase reporter gene assay
T1 sequence (whole entry): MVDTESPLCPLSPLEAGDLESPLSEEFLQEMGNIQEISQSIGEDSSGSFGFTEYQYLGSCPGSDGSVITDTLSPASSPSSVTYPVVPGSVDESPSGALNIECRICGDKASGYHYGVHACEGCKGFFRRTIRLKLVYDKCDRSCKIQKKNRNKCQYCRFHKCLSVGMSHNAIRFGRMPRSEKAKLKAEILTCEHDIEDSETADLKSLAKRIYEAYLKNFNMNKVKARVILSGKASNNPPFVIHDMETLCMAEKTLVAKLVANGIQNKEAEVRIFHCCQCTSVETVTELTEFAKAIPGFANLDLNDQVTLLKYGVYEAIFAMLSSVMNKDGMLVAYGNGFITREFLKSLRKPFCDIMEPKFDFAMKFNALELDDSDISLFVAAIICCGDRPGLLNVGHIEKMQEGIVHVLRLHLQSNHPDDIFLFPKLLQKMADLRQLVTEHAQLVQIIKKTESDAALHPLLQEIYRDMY

[2] = target: T2, Peroxisome proliferator-activated receptor delta (Homo sapiens) (UniProt Q03181); test: Transactivation of Gal4-fused PPARbeta/delta ligand binding domain expressed in human HepG2 cells co-transfected with pFRLuc and pRL-CMV at 0.1 to 10 uM after 20 hrs by dual-luciferase reporter gene assay
T2 sequence (whole entry): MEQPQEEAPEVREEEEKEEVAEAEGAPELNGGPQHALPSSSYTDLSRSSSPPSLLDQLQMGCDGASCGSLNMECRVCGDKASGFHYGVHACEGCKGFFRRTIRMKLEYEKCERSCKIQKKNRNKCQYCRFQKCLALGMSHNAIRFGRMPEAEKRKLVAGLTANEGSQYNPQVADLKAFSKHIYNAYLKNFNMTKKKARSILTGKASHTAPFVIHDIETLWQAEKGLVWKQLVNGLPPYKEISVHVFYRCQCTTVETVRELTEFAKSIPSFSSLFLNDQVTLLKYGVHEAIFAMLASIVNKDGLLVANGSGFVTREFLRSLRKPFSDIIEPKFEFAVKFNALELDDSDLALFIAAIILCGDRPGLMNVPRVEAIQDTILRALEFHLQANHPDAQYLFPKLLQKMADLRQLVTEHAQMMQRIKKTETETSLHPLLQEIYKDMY

[3] = tested on: HepG2; test: Inhibition of NF-kappaB activation expressed in human HepG2 cells assessed as reduction in TNFalpha-induced COX2 mRNA expression preincubated 1 hr before TNFalpha challenge measured after 6 hrs by RT-PCR analysis
[4] = tested on: HepG2; test: Inhibition of NFkappaB activation expressed in human HepG2 cells assessed as reduction in TNF-alpha-induced iNOS mRNA expression preincubated 1 hr before TNFalpha challenge measured after 6 hrs by RT-PCR analysis
[5] = tested on: HepG2; test: Cytotoxicity against human HepG2 cells assessed as cell viability at 10 uM after 24 hrs by MTS assay; details: hepg2, 24 h
[6] = target: T3, Peroxisome proliferator-activated receptor gamma (Homo sapiens) (UniProt P37231); test: Transactivation of Gal4-fused PPARgamma ligand binding domain expressed in human HepG2 cells co-transfected with pFR-Luc and pRL-CMV at 0.1 to 10 uM after 20 hrs by dual-luciferase reporter gene assay
T3 sequence (whole entry): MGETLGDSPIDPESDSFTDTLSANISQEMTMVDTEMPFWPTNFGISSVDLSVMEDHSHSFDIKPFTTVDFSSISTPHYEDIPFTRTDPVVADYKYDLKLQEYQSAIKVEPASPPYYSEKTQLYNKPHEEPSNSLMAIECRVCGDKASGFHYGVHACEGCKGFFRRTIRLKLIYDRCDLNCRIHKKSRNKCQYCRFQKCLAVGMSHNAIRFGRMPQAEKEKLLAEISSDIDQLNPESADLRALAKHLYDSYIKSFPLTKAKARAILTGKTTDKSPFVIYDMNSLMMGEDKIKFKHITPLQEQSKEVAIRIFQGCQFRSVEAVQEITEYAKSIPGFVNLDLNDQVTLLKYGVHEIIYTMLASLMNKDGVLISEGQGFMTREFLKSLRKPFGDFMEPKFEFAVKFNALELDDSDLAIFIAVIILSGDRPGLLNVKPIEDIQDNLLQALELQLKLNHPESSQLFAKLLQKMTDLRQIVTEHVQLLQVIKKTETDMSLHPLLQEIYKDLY

[7] = Inhibition of NF-kappaB activation expressed in TNFalpha-stimulated human HepG2 cells co-transfected with […] plasmid pretreated for 1 hr before TNFalpha challenge measured after 24 hrs by luciferase reporter gene assay

Structure (SMILES)	Activity [1]	Activity [2]	inhibition [3]	inhibition [4]	Activity [5]	Activity [6]	IC50 [7]
CC1(C)CC[C@]2(C(=O)O[C@@H]3O[C@H](CO)[C@@H](O)[C@H](O)[C@H]3O)CC[C@]3(C)C(=CC[C@@H]4[C@@]5(C)CC[C@H](O[C@@H]6O[C@H](C(=O)O)[C@@H](O)[C@H](O[C@@H]7O[C@H](CO)[C@@H](O)[C@H](O)[C@H]7O)[C@H]6O[C@@H]6OC[C@H](O)[C@H](O)[C@H]6O)C(C)(C)[C@@H]5CC[C@]43C)[C@@H]2C1	inactive	inactive	Dose-dependent effect	Dose-dependent effect	Non-toxic	Active	9.5 µM
COC(=O)[C@H]1O[C@@H](O[C@H]2CC[C@]3(C)[C@H]4CC=C5[C@@H]6CC(C)(C)CC[C@]6(C(=O)O[C@@H]6O[C@H](CO)[C@@H](O)[C@H](O)[C@H]6O)CC[C@@]5(C)[C@]4(C)CC[C@H]3C2(C)C)[C@H](O[C@@H]2OC[C@H](O)[C@H](O)[C@H]2O)[C@@H](O[C@@H]2O[C@H](CO)[C@@H](O)[C@H](O)[C@H]2O)[C@@H]1O	inactive	inactive	–	–	Non-toxic	Active	–
CC1(C)CC[C@]2(C(=O)O[C@@H]3O[C@H](CO)[C@@H](O)[C@H](O)[C@H]3O)CC[C@]3(C)C(=CC[C@@H]4[C@@]5(C)CC[C@H](O[C@@H]6O[C@H](C(=O)O)[C@@H](O)[C@H](O[C@@H]7O[C@H](CO)[C@H](O)[C@H](O)[C@H]7O)[C@H]6O[C@@H]6O[C@H](CO)[C@H](O)[C@H](O)[C@H]6O)C(C)(C)[C@@H]5CC[C@]43C)[C@@H]2C1 [ELATOSIDE D]	inactive	inactive	–	–	Non-toxic	Active	–
CC1(C)CC[C@]2(C(=O)O[C@@H]3O[C@H](CO[C@@H]4O[C@H](CO)[C@@H](O)[C@H](O)[C@H]4O)[C@@H](O)[C@H](O)[C@H]3O)CC[C@]3(C)C(=CC[C@@H]4[C@@]5(C)CC[C@H](O[C@@H]6O[C@H](C(=O)O)[C@@H](O[C@@H]7O[C@@H](CO)[C@H](O)[C@H]7O)[C@H](O)[C@H]6O[C@@H]6O[C@H](CO[C@@H]7O[C@H](CO)[C@@H](O)[C@H](O)[C@H]7O)[C@@H](O)[C@H](O)[C@H]6O)C(C)(C)[C@@H]5CC[C@]43C)[C@@H]2C1 [ELATOSIDE L]	–	–	Dose-dependent effect	Dose-dependent effect	Non-toxic	–	4.1 µM
CC1(C)CC[C@]2(C(=O)O[C@@H]3O[C@H](CO)[C@@H](O)[C@H](O)[C@H]3O)CC[C@]3(C)C(=CC[C@@H]4[C@@]5(C)CC[C@H](O[C@@H]6O[C@H](C(=O)O)[C@@H](O[C@H]7O[C@@H](CO)[C@H](O)[C@H]7O)[C@H](O[C@@H]7O[C@H](CO)[C@@H](O)[C@H](O)[C@H]7O)[C@H]6O)C(C)(C)[C@@H]5CC[C@]43C)[C@@H]2C1 [STIPULEANOSIDE R2]	–	–	–	–	Non-toxic	–	–
O=C(O)c1cc(/N=N/c2ccc(S(=O)(=O)Nc3ccccn3)cc2)ccc1O [SULFASALAZINE]	–	–	–	–	–	–	0.9 µM
CC1(C)CC[C@]2(C(=O)O[C@@H]3O[C@H](CO)[C@@H](O)[C@H](O)[C@H]3O)CC[C@]3(C)C(=CC[C@@H]4[C@@]5(C)CC[C@H](O[C@@H]6O[C@H](C(=O)O)[C@@H](O[C@@H]7O[C@@H](CO)[C@H](O)[C@H]7O)[C@H](O)[C@H]6O[C@@H]6O[C@H](CO)[C@@H](O)[C@H](O)[C@H]6O)C(C)(C)[C@@H]5CC[C@]43C)[C@@H]2C1 [TARASAPONIN IV]	–	–	–	–	Non-toxic	–	–
